Laboratory results taken from US20100216795A1, “TNIK INHIBITOR AND THE USE” (priority 2008, published 2010).

Key:
Assay in all cases: Selectivity profiling, QuickScout STK Screening Panel
Type in all cases: biochemical
AMPKa1/b1/g1 = biological target: T1, AMPKa1/b1/g1 (Homo sapiens, UniProt P54619+Q13131+Q9Y478)
T1 construct: purchased Carna Biosciences
Procedure: (§1) The inhibitory effects of Compound 1 against 20 tyrosine kinases and 30 serine/threonine kinases were investigated using QuickScout™ TK and STK Screening Panel (Carna Biosciences, Kobe Japan). […] The results reveal that Compound 1 inhibits TNIK_N more potently (IC50; 9 nM) than the other 50 kinases.

PKACa = biological target: T2, PKACa (Homo sapiens, UniProt P17612)
T2 construct: purchased Carna Biosciences
Procedure: as §1

RAF1 = RAF1 (Homo sapiens, UniProt P04049)
Chain of RAF1 (P04049 whole entry Y340D/Y341D, form open): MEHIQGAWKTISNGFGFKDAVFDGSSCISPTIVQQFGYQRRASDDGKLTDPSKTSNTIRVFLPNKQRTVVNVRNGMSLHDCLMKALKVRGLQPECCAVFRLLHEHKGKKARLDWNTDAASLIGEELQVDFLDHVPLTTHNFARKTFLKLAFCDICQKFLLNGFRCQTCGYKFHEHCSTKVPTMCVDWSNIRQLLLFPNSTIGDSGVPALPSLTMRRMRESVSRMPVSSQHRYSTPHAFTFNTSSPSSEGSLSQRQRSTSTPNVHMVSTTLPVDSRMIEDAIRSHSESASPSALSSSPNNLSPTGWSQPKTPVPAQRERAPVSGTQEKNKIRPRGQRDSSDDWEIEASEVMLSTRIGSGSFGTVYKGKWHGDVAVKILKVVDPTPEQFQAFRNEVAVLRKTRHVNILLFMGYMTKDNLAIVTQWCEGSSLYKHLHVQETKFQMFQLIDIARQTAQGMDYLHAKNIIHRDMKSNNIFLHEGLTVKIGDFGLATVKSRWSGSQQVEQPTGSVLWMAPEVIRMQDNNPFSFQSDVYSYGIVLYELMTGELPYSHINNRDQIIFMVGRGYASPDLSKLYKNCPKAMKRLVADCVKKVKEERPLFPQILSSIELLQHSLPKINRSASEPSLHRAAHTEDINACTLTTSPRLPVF
Procedure: as §1

PKCa = biological target: T3, PKCa (Homo sapiens, UniProt P17252)
T3 construct: purchased Carna Biosciences
Procedure: as §1

ROCK1 = biological target: T4, ROCK1 (Homo sapiens, UniProt Q13464)
T4 construct: purchased Carna Biosciences
Procedure: as §1

CHK1 = biological target: T5, CHK1 (Homo sapiens, UniProt O14757)
T5 construct: purchased Carna Biosciences
Procedure: as §1

p38a = biological target: T6, p38a (Homo sapiens, UniProt Q16539)
T6 construct: purchased Carna Biosciences
Procedure: as §1

PKD2 = biological target: T7, PKD2 (Homo sapiens, UniProt Q9BZL6)
T7 construct: purchased Carna Biosciences
Procedure: as §1

DAPK1 = biological target: T8, DAPK1 (Homo sapiens, UniProt P53355)
T8 construct: purchased Carna Biosciences
Procedure: as §1

CK1e = biological target: T9, CK1e (Homo sapiens, UniProt P49674)
T9 construct: purchased Carna Biosciences
Procedure: as §1

CaMK4 = biological target: T10, CaMK4 (Homo sapiens, UniProt Q16566)
T10 construct: purchased Carna Biosciences
Procedure: as §1

MAPKAPK2 = biological target: T11, MAPKAPK2 (Homo sapiens, UniProt P49137)
T11 construct: purchased Carna Biosciences
T11 sequence (P49137 whole entry): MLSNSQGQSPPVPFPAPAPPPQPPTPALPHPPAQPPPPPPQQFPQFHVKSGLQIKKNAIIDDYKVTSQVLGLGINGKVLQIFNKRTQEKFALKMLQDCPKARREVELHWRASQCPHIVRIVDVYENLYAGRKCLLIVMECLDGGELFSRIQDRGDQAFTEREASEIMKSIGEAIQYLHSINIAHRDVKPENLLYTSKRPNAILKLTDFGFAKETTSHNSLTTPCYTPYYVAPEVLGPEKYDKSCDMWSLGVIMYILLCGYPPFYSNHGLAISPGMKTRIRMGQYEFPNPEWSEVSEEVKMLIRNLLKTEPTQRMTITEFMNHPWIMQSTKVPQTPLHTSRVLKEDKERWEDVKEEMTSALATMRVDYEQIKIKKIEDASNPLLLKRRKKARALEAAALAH
Procedure: as §1

JNK2 = biological target: T12, JNK2 (Homo sapiens, UniProt P45984)
T12 construct: purchased Carna Biosciences
Procedure: as §1

IRAK4 = biological target: T13, IRAK4 (Homo sapiens, UniProt Q9NWZ3)
T13 construct: purchased Carna Biosciences
Procedure: as §1

Erk2 = biological target: T14, Erk2 (Homo sapiens, UniProt P28482)
T14 construct: purchased Carna Biosciences
T14 sequence (P28482 whole entry): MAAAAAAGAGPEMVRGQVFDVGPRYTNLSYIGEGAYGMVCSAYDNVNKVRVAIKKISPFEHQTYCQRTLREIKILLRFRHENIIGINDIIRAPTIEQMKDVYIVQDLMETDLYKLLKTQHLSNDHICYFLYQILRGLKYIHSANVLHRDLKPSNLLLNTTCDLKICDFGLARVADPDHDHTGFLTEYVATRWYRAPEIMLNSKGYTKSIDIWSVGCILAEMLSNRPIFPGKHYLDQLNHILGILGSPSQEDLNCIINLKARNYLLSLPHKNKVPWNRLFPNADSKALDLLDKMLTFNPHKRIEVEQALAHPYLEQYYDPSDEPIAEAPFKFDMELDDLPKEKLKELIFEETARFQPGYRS
Procedure: as §1

PIM1 = biological target: T15, PIM1 (Homo sapiens, UniProt P11309)
T15 construct: purchased Carna Biosciences
T15 sequence (P11309 whole entry): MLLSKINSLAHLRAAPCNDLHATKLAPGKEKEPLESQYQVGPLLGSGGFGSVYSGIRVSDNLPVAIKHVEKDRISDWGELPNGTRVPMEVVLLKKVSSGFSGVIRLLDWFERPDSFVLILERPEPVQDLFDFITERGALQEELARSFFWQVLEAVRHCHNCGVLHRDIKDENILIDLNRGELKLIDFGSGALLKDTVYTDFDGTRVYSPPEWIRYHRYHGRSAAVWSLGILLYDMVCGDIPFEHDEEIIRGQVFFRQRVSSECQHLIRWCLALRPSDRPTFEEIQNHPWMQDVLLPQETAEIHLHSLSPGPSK
Procedure: as §1

IKKb = biological target: T16, IKKb (Homo sapiens, UniProt O14920)
T16 construct: purchased Carna Biosciences
Procedure: as §1

MST1 = biological target: T17, MST1 (Homo sapiens, UniProt Q13043)
T17 construct: purchased Carna Biosciences
Procedure: as §1

MLK1 = biological target: T18, MLK1 (Homo sapiens, UniProt P80192)
T18 construct: purchased Carna Biosciences
T18 sequence (P80192 whole entry): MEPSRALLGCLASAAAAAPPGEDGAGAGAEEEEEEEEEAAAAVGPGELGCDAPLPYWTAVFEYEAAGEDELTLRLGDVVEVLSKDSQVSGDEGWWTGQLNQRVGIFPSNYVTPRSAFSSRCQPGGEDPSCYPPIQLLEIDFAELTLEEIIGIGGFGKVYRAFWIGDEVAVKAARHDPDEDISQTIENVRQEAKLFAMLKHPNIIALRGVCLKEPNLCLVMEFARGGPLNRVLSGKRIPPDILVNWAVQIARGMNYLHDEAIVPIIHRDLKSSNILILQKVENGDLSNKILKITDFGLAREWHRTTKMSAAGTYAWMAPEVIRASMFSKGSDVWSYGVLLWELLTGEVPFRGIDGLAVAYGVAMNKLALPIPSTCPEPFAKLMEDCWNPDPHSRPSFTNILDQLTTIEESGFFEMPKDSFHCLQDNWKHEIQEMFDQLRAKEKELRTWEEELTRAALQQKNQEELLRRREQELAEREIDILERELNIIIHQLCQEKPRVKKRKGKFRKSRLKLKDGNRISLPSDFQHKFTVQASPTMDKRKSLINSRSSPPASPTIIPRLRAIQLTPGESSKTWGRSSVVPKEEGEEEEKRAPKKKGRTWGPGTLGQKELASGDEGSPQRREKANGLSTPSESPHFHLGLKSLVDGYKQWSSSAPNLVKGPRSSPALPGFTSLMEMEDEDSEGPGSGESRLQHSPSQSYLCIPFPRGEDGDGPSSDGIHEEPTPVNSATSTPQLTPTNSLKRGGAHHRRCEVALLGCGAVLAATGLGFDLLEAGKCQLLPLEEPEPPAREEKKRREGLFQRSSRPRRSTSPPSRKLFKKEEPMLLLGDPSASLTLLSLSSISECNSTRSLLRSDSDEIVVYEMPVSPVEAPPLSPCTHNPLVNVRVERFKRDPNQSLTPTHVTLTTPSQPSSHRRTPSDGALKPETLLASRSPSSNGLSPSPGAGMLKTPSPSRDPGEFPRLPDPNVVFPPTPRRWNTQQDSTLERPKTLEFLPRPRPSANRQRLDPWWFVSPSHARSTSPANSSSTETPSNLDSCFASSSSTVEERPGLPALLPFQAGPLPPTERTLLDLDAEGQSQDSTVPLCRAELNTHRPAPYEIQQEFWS
Procedure: as §1

NEK2 = biological target: T19, NEK2 (Homo sapiens, UniProt P51955)
T19 construct: purchased Carna Biosciences
T19 sequence (P51955 whole entry): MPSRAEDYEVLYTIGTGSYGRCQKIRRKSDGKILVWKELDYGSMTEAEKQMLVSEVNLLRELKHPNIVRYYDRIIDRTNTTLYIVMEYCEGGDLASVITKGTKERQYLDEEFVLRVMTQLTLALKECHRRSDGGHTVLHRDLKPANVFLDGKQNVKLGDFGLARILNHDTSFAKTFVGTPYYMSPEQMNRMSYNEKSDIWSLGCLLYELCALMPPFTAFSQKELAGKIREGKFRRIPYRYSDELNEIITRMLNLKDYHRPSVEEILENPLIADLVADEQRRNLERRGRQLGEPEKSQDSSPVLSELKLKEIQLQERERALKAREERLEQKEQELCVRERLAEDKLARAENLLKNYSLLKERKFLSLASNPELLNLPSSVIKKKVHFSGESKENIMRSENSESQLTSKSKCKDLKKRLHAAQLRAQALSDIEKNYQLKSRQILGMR
Procedure: as §1

GSK3b = biological target: T20, GSK3b (Homo sapiens, UniProt P49841)
T20 construct: purchased Carna Biosciences
Procedure: as §1

p70S6K = biological target: T21, p70S6K (Homo sapiens, UniProt P23443)
T21 construct: purchased Carna Biosciences
T21 sequence (P23443 whole entry): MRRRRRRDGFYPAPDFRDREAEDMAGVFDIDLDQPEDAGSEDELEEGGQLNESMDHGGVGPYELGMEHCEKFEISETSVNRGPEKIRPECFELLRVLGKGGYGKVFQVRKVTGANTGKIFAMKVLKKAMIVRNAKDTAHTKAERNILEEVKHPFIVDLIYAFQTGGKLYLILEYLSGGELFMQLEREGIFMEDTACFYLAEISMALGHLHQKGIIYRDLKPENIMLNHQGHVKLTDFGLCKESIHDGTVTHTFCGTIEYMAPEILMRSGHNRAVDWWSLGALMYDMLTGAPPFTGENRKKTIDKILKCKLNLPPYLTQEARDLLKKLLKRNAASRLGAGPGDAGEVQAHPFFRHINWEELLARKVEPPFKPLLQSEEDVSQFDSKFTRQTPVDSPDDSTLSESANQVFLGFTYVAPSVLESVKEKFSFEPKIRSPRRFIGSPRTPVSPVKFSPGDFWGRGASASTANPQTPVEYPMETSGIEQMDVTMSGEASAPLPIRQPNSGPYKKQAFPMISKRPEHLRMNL
Procedure: as §1

PDK1 = biological target: T22, PDK1 (Homo sapiens, UniProt O15530)
T22 construct: purchased Carna Biosciences
Procedure: as §1

PAK4 = biological target: T23, PAK4 (Homo sapiens, UniProt O96013)
T23 construct: purchased Carna Biosciences
Procedure: as §1

AurA = biological target: T24, AurA (Homo sapiens, UniProt O14965)
T24 construct: purchased Carna Biosciences
Procedure: as §1

CDK2 = biological target: T25, CDK2 (Homo sapiens, UniProt P24941)
T25 construct: purchased Carna Biosciences
Procedure: as §1

DYRK1B = biological target: T26, DYRK1B (Homo sapiens, UniProt Q9Y463)
T26 construct: purchased Carna Biosciences
Procedure: as §1

MAP2K1 = biological target: T27, MAP2K1 (Homo sapiens, UniProt Q02750)
T27 construct: purchased Carna Biosciences
Procedure: as §1

AKT1 = biological target: T28, AKT1 (Homo sapiens, UniProt P31749)
T28 construct: purchased Carna Biosciences
Procedure: as §1

SGK = biological target: T29, SGK (Homo sapiens, UniProt O00141)
T29 construct: purchased Carna Biosciences
Procedure: as §1

T1 sequence (Q13131 10-559 limits assumed): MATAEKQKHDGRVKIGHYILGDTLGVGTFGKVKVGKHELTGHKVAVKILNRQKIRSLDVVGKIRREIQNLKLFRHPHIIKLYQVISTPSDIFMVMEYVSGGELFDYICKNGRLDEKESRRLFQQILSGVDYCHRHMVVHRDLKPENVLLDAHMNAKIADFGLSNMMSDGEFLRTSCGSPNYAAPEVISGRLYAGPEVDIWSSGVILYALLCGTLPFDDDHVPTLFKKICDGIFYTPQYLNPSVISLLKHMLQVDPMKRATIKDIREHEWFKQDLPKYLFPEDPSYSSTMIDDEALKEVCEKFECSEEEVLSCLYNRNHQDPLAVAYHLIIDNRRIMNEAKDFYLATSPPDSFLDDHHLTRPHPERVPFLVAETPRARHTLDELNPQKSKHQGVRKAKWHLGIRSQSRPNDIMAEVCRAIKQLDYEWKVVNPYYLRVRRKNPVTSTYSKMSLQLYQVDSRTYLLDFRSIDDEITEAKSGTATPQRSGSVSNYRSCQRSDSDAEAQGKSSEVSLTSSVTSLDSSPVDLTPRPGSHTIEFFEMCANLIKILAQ
T1 sequence (Q9Y478 whole entry partner): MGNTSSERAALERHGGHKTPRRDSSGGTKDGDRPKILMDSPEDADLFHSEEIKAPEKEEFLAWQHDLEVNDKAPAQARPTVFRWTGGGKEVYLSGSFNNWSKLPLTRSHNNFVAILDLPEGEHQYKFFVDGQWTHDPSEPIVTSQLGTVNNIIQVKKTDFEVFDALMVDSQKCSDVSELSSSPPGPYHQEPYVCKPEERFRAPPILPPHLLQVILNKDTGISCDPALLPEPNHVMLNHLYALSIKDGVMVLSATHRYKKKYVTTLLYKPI
T1 sequence (P54619 whole entry partner): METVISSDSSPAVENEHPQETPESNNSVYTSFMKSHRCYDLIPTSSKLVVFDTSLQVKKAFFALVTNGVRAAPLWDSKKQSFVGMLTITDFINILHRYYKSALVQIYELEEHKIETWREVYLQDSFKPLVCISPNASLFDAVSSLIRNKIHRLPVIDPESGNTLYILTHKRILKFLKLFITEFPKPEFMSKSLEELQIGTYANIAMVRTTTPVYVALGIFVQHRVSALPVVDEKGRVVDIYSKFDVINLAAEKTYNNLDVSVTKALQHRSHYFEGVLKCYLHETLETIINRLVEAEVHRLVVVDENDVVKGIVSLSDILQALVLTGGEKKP

IC50 (AMPKa1/b1/g1): > 300 nM
IC50 (PKACa): > 300 nM
IC50 (RAF1): > 300 nM
IC50 (PKCa): > 300 nM
IC50 (ROCK1): > 300 nM
IC50 (CHK1): > 300 nM
IC50 (p38a): > 300 nM
IC50 (PKD2): > 300 nM
IC50 (DAPK1): > 300 nM
IC50 (CK1e): > 300 nM
IC50 (CaMK4): > 300 nM
IC50 (MAPKAPK2): > 300 nM
IC50 (JNK2): > 300 nM
IC50 (IRAK4): > 300 nM
IC50 (Erk2): > 300 nM
IC50 (PIM1): > 300 nM
IC50 (IKKb): > 300 nM
IC50 (MST1): > 300 nM
IC50 (MLK1): 18 nM
IC50 (NEK2): > 300 nM
IC50 (GSK3b): 120 nM
IC50 (p70S6K): > 300 nM
IC50 (PDK1): > 300 nM
IC50 (PAK4): > 300 nM
IC50 (AurA): 130 nM
IC50 (CDK2): > 300 nM
IC50 (DYRK1B): > 300 nM
IC50 (MAP2K1): > 300 nM
IC50 (AKT1): > 300 nM
IC50 (SGK): > 300 nM
SMILES: CC(=O)Nc1ccc(C(=O)Nc2sc(Nc3ccccc3)nc2C(N)=O)cc1 [Compound 1, 5-(4-acetamidobenzamido)-2-(phenylamino)thiazole-4-carboxamide]
